The results in this text go back to US20240018153A1, “BENZENESULFONAMIDE DERIVATIVES AND USES THEREOF” (2692372 ONTARIO, INC., priority 2020, published 2024).

SMILES strings stand for the structures. Some results are limits rather than exact numbers.

The test system of one assay is β-Tubulin. As to the kind of experiment: K562 cell lysis and immunoassay, β-tubulin degradation. The format is cell-based. Also noted: key: Y: β-tubulin bound in cells and tubulin degradation occurred. To be noted: K562 cells, compound concentration 10. Here is the method: K562 cells (ATCC) were cultured in Iscove's Modified Dulbecco's Medium (IMDM) (Wisent) supplemented with 10% FBS and 1% penicillin/streptomycin. Cells were seeded in 6-well plates at 1.71×10^6 cells/well and incubated at 37° C., 5% CO2 for 16 hours. Cells were treated with compounds at the indicated concentrations or DMSO alone and incubated at 37° C., 5% CO2 for 24 hours. Cell suspensions were centrifugated at 1,400 RPM for 5 minutes at room temperature and supernatants were discarded. Cell pellets were resuspended with 1× RIPA buffer (Millipore) and incubated on ice for 15 minutes. Protein lysates were extracted by centrifugating at 20,000 RPM for 20 minutes at 4° C. Proteins were separated and total β-Tubulin levels were quantified by Simple Western Immunoassay (ProteinSimple) using the Protein Normalization Assay Module for Jess (ProteinSimple) according to the manufacturer's protocol, using a protein concentration of 0.05 μg/μl and an antibody targeting β-Tubulin (Abcam) diluted to 1:800. β-Tubulin levels were quantified relative to the Protein Normalization Reagent and subsequently normalized to the DMSO control.

Assay [1] deals with T1, EGFR (Homo sapiens (Human), UniProt P00533). Put plainly: HTRF KinEASE-TK kinase assay, EGFR. The assay is classed as biochemical. To be noted: 3 h preincubation; for remaining activity at 1 µM: 1 μM compound, read-out: % EGFR Remaining activity vs DMSO (1 μM, 3 h); for remaining activity at 10 µM: 10 μM compound, read-out: % EGFR Remaining activity vs DMSO (10 μM, 3 h). The procedure, abridged: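 Buffer contained 5 mM MgCl2, 2 mM MnCl2 and 1 mM TCEP; compounds at two final concentrations, 1 and 10 uM, with 0.5% DMSO, pre-incubated with the enzyme.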
T1 sequence (P00533 25-1210): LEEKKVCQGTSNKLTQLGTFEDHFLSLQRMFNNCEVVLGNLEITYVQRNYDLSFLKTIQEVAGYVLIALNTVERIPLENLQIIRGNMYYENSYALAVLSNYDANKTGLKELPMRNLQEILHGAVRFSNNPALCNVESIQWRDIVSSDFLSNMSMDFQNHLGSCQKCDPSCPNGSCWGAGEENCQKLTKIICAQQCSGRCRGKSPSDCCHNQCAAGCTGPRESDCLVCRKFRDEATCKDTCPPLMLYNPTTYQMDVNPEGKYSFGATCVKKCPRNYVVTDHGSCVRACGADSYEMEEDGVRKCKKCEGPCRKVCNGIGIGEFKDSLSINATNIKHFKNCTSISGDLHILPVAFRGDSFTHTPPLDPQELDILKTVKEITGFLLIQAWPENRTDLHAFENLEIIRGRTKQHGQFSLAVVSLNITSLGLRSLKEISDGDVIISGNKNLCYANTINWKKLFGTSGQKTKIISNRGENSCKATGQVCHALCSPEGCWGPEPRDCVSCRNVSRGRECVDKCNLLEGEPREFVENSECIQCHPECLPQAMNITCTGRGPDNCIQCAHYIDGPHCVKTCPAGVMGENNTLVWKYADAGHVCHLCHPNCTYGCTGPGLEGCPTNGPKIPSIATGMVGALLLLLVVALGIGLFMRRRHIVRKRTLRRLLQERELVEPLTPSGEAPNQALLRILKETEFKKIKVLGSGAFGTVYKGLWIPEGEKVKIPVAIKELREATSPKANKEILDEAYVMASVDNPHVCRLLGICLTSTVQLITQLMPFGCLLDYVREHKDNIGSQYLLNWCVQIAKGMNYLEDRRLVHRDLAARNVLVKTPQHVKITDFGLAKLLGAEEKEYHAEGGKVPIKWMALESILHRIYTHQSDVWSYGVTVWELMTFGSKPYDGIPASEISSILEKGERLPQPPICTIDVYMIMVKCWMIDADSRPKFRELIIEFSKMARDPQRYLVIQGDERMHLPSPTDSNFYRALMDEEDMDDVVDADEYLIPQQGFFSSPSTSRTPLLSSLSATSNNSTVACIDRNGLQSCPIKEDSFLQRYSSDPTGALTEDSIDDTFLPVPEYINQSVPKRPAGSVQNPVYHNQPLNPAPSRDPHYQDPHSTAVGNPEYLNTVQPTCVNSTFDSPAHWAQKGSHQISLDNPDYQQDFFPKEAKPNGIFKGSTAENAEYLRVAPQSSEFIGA
For orientation: TR-FRET usually uses a lanthanide donor and a delayed reading to cut background.

Assay [2] deals with T2, BTK (Homo sapiens (Human), UniProt Q06187). As to the kind of experiment: HTRF KinEASE-TK kinase assay, BTK. The format is biochemical. To be noted: 3 h preincubation; for remaining activity at 1 µM: 1 μM compound, read-out: % BTK Remaining activity vs DMSO (1 μM, 3 h); for remaining activity at 10 µM: 10 μM compound, read-out: % BTK Remaining activity vs DMSO (10 μM, 3 h). The procedure, abridged: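 Read-out was the 665 nm to 620 nm ratio, taken 60 min after detection, reflecting phosphorylated biotinylated substrate. Before this, BTK reacted 45 min with substrate and ATP in kinase buffer supplemented with MnCl2 (10 mM), MgCl2 (5 mM), ATPγS (1 uM) and TCEP (1 mM).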
T2 sequence (Q06187 whole entry): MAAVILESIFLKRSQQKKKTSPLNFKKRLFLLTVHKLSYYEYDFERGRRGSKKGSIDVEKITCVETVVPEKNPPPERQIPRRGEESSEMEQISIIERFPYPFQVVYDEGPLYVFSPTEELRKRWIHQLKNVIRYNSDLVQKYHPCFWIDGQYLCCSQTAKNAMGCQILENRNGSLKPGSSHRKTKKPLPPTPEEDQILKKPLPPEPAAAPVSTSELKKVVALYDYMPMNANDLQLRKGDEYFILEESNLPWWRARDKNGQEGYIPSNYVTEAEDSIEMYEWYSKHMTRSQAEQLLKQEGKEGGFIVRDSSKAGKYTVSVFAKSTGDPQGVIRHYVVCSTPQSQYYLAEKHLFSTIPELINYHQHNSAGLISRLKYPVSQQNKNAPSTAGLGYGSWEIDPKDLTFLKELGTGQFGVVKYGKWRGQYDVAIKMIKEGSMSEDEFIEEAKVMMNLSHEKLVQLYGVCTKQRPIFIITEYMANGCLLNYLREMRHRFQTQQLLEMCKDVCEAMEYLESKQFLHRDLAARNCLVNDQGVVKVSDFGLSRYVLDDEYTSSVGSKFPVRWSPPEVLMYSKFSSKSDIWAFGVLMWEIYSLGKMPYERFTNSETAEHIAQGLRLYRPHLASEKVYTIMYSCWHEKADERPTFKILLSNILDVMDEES

For assay [3], the target named is T2, BTK. As to the kind of experiment: Ramos RA1 cell lysis and immunoassay, phospho-BTK (Y223) inhibition. The format is cell-based. Also noted: key: X: BTK bound and autophosphoration of BTK inhibited in cells. To be noted: RAMOS cells, compound concentration 1 μM. The protocol: (§1) Ramos RA 1 cells (ATCC) were cultured in RPMI-1640 media (Wisent) supplemented with 10% heat-inactivated FBS and 1% penicillin/streptomycin. Cells were seeded in 6-well plates at 1.71×10^6 cells/well and incubated at 37° C., 5% CO2 for 16 hours. Cells were treated with compound at the indicated concentrations or DMSO alone and incubated at 37° C., 5% CO2 for 24 hours. Cell suspensions were centrifugated at 1,400-1,600 RPM for 5 minutes at room temperature and supernatants were discarded. Cell pellets were resuspended with 1× RIPA buffer (Millipore) and incubated on ice for 15 minutes. Protein lysates were extracted by centrifugating at 20,000 RPM for 20 minutes at 4° C. Proteins were separated and total BTK protein levels were quantified by Simple Western Immunoassay (ProteinSimple) using the 12-230 kDa Jess Separation Module according to the manufacturer's protocol, using a protein concentration of 0.25 μg/μl and antibodies targeting BTK (clone #D3H5, Cell Signalling) and β-Actin (clone #AC-15, Santa Cruz) diluted to 1:400 and 1:10, respectively, where the latter was used as a loading control. An equal ratio of rabbit and mouse HRP-conjugated secondary antibodies was used for detection. BTK protein levels were quantified relative to S-Actin loading levels and subsequently normalized to the DMSO control. Phosphorylated BTK levels were quantified using the Protein Normalization Assay Module for Jess (ProteinSimple) according to the manufacturer's protocol, using a protein concentration of 1.5 μg/μl and an antibody targeting pBTK (Y223) (Cell Signalling) diluted to 1:50. Phosphorylated BTK levels were quantified relative to the Protein Normalization Reagent and subsequently normalized to the DMSO control.

For assay [4], the target named is T2, BTK. As to the kind of experiment: Ramos RA1 cell lysis and immunoassay, total BTK degradation. The assay is classed as cell-based. More on the design: key to % BTK degradation (RAMOS, 24 h): Y: BTK bound in cells and BTK degradation occurred; concentration or dose not given beside the values. To be noted: RAMOS cells. The protocol: as §1
The target of another assay is BMX (Homo sapiens (Human), UniProt P51813). Put plainly: HTRF KinEASE-TK kinase assay, BMX. The assay is classed as biochemical. To be noted: for remaining activity at 1 µM: 1 uM compound; for remaining activity at 1 µM / remaining activity at 10 µM: 3 h preincubation; for remaining activity at 10 µM: 10 uM compound. The procedure, abridged:
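Phosphorylation was quantified by HTRF KinEASE-TK as the 665/620 nm ratio, read 60 min after EDTA stop with SA-XL665 (31.25 nM) and europium antibody. Before the reaction, 3.03 nM BMX was preincubated with compound for 3 hours at room temperature, and the reaction was started with biotinylated substrate plus ATP.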

Another assay has as its target JAK3 (Homo sapiens (Human), UniProt P52333). Put plainly: HTRF KinEASE-TK kinase assay, JAK3. The assay is classed as biochemical. To be noted: for remaining activity at 1 µM: read-out: % JAK3 Remaining activity vs DMSO (1 μM, 3 h); for remaining activity at 10 µM: read-out: % JAK3 Remaining activity vs DMSO (10 μM, 3 h). In short, it runs like this:
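HTRF read-out: the Em665/Em620 ratio, measured 60 min after stopping with EDTA, 31.25 nM SA-XL665 and 100-fold diluted Eu-antibody, was taken as phosphorylated substrate. Beforehand, 0.21 nM JAK3 (0.0133 ng/µl) sat with compound for 3 h at room temperature, then biotinylated substrate plus ATP started the reaction.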

Another assay addresses FGFR4 (Homo sapiens (Human), UniProt P22455). As to the kind of experiment: HTRF KinEASE-TK kinase assay, FGFR4. The format is biochemical. To be noted: for remaining activity at 1 µM: read-out: % FGFR4 Remaining activity vs DMSO (1 μM, 3 h); for remaining activity at 10 µM: read-out: % FGFR4 Remaining activity vs DMSO (10 μM, 3 h). The procedure, abridged: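 HTRF ratio (Em 665/620 nm) measured 60 min after EDTA stop with SA-XL665 (31.25 nM) and europium antibody reflects phosphorylated biotinylated substrate. Before substrate/ATP addition, 5.12 nM (0.333 ng/ul) FGFR4 sat with compound 3 h at room temperature.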

In a further assay the target is RIPK2 (Homo sapiens (Human), UniProt O43353). As to the kind of experiment: In vitro RIPK2 inhibition. The assay is classed as biochemical. To be noted: for remaining activity at 1 µM: read-out: % RIPK2 Remaining activity vs DMSO (1 μM, 3 h); for remaining activity at 10 µM: read-out: % RIPK2 Remaining activity vs DMSO (10 μM, 3 h).
Chain of RIPK2 (O43353 whole entry, species assumed): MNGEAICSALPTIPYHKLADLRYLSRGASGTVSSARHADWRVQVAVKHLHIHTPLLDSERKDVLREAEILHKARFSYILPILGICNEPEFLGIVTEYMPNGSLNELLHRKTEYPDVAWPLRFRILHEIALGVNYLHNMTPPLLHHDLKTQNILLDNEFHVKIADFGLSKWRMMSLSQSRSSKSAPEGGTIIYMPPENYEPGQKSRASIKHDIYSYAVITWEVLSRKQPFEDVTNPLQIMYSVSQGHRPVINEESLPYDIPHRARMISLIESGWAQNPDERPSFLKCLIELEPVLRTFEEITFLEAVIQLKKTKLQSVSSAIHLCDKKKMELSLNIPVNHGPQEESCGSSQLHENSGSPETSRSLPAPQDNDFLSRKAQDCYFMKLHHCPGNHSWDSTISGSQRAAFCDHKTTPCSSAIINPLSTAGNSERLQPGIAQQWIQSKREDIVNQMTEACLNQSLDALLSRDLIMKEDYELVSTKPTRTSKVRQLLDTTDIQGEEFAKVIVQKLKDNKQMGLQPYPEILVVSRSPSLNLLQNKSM
The target of assay [5] is T1, EGFR. As to the kind of experiment: Time-dependent inhibition of EGFR (HTRF). The format is biochemical. To be noted: pre-incubation 0-60 min. Here is the method:
For the time-dependent inhibition experiments, the activity of EGFR kinase was monitored using a HTRF® KinEASE-TK kit from Cisbio (62TK0PEC) as described above. Six compounds showing higher potency during dose response analysis against EGFR, were further evaluated for their change in inhibitory potency over time. Ibrutinib was used as a positive control. The selected compounds were pre incubated with the kinase at 11 different concentrations, ranging from […] to 25 uM final compound concentrations. The pre incubation times were 0, 2, 5, 10, 15, 30, 45 and 60 min. After the preincubation, the reaction was initiated by adding biotinylated substrate and ATP and the reaction was allowed to proceed for 45 min. […] The reaction was terminated by adding 31.25 nM SA-XL665 and 100 fold diluted europium labelled antibody (Eu-Ab), diluted in 1× detection buffer that contained EDTA. After 60 min of incubation, the fluorescence emission was measured at 620 nm and 665 nm. The ratio of Em 665 nm to Em 620 nm was proportional to the amount of substrate phosphorylated by the kinase. Product formation vs pre-incubation time data were fitted to a one phase exponential decay equation using GraphPad Prism. The same product formation vs inhibitor concentration data were also fitted to a log(antagonist) vs. response—Variable slope equation in GraphPad Prism to provide IC50 values at different pre incubation times.

Chain of FGFR4 (P22455 22-802): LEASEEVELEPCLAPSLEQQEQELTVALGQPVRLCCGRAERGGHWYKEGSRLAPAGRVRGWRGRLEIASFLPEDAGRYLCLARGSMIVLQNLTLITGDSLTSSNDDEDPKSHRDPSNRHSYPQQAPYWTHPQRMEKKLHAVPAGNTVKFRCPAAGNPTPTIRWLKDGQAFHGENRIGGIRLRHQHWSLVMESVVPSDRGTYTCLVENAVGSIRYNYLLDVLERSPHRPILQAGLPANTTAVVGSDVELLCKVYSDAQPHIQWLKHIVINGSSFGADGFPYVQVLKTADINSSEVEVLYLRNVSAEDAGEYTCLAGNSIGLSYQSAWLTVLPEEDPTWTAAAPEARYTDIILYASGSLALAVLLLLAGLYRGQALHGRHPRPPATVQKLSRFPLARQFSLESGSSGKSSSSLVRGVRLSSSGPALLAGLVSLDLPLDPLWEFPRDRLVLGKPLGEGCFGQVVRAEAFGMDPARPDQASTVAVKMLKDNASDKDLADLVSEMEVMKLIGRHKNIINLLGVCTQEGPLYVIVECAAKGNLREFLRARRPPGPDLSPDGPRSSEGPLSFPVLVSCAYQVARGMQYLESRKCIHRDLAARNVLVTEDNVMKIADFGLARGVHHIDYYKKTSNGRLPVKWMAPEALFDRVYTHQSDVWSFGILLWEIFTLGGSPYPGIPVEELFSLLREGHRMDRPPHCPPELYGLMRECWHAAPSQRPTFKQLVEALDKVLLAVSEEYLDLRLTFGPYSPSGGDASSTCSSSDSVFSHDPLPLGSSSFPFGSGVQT
Chain of JAK3 (P52333 781-1124): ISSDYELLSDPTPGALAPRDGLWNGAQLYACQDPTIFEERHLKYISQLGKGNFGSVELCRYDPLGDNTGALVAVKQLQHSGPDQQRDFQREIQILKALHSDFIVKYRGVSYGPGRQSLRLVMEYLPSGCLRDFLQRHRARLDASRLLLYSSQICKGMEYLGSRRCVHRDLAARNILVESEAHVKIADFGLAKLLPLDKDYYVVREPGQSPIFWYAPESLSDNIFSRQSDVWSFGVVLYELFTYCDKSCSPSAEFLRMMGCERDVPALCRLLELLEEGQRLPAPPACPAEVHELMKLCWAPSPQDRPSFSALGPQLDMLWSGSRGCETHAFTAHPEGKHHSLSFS
Chain of BMX (P51813 whole entry): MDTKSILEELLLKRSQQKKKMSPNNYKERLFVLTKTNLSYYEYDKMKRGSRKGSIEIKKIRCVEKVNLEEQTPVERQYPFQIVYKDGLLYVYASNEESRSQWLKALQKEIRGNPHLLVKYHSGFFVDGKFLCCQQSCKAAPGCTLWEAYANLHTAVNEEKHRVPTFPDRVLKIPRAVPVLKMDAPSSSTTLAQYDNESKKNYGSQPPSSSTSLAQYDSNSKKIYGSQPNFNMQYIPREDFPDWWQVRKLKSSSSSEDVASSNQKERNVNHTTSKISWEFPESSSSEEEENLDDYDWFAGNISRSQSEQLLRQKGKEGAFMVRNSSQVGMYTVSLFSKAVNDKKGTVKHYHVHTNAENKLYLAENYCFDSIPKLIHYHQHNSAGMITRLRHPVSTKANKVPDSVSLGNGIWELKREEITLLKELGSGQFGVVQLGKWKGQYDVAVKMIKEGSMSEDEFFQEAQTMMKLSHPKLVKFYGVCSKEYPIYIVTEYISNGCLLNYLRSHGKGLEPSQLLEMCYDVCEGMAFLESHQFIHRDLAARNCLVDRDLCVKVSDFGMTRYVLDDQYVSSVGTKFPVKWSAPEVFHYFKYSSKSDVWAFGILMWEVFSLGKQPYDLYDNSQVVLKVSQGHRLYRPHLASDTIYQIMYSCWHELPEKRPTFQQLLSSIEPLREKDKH

`COc1ccc(CS(=O)(=O)c2c(F)c(F)c(F)c(F)c2OC(F)F)cc1F` [Compound I-15, 1-(difluoromethoxy)-2,3,4,5-tetrafluoro-6-((3-fluoro-4-methoxybenzyl)sulfonyl) benzene]: the “Beta-tubulin K562, compound concentration, 24 hrs” value with β-Tubulin was “Y”.
For `Nc1ncnc2c1c(-c1ccc(Oc3ccccc3)cc1)nn2[C@@H]1CCCN(C(=O)c2c(F)c(F)c(F)c(F)c2S(N)(=O)=O)C1` [Compound I-35, (R)-2-(3-(4-amino-3-(4-phenoxyphenyl)-1H-pyrazolo[3,4-d]pyrimidin-1-yl)piperidine-1-carbonyl)-3,4,5,6-tetrafluorobenzenesulfonamide], the remaining activity (as a rule, what remains of the control signal, in per cent) at 1 µM on EGFR [1] was above 90%; on BTK [2], below 50%; at BMX, below 50%; on JAK3 it was above 90%; on FGFR4, 50 to 90%; on RIPK2 it was above 90%. In addition, the remaining activity at 10 µM on EGFR [1] is above 90%; at BTK [2] it was below 50%; on BMX it was below 50%; at JAK3 it was above 90%; at FGFR4, below 50%; on RIPK2, above 90%. For the same compound, on BTK [3], the “pBTK inhibition (RAMOS, 24 h)” value is given as “X”. In addition, the “% BTK degradation (RAMOS, 24 h)” value on BTK [4] is given as “Y”.
Turning to `C=CC(=O)N1CCC[C@@H](n2nc(-c3ccc(Oc4ccccc4)cc3)c3c(N)ncnc32)C1` [ibrutinib, reference compound], the “Time-dependent inhibition of EGFR: product formation versus pre-incubation time” value on EGFR [5] (mono-exponential decay fit) is “concentration-dependent first order loss of enzyme activity”. Besides, the “Time-dependent inhibition of EGFR: IC50 values versus pre-incubation time” value at EGFR [5] is on record as “decrease as pre-incubation times increase”.
For the compound `CS(=O)(=O)c1c(F)c(F)c(F)c(F)c1C(=O)n1ccc2c(N)ncnc21` [Compound I-49, (4-amino-7H-pyrrolo[2,3-d]pyrimidin-7-yl)(2,3,4,5-tetrafluoro-6-(methylsulfonyl)phenyl)methanone], the remaining activity at 1 µM is above 90% at EGFR [1]; 50 to 90% at BTK [2]; 50 to 90% on BMX; above 90% at JAK3; 50 to 90% at FGFR4; below 50% on RIPK2. Moreover, the remaining activity at 10 µM on EGFR [1] is above 90%; on BTK [2] it was below 50%; on BMX, below 50%; on JAK3, above 90%; on FGFR4, below 50%; on RIPK2, below 50%. Moreover, the “% BTK degradation (RAMOS, 24 h)” value on BTK [4] is “Y”.
For the compound `COCCOc1ccc(Nc2ncc(F)c(NCCCNS(=O)(=O)c3c(F)c(F)c(F)c(F)c3C(F)F)n2)cc1` [Compound I-52, 2-(difluoromethyl)-3,4,5,6-tetrafluoro-N-(3-((5-fluoro-2-((4-(2-methoxyethoxy)phenyl)amino)pyrimidin-4-yl)amino)propyl)benzenesulfonamide], the remaining activity at 1 µM is above 90% at EGFR [1]; below 50% on BTK [2]; below 50% at BMX; below 50% at JAK3; above 90% at FGFR4. The remaining activity at 10 µM was 50 to 90% at EGFR [1]; below 50% at BTK [2]; below 50% at BMX; below 50% at JAK3; below 50% on FGFR4. In addition, the “pBTK inhibition (RAMOS, 24 h)” value at BTK [3] is “X”. The IC50 (in general, the concentration at which inhibition is half-maximal) against JAK3 (dose response) is below 1 µM.
Consider `Nc1ncnc2c1c(-c1ccc(Oc3ccccc3)cc1)nn2C1CCN(S(=O)(=O)c2c(F)c(F)c(F)c(F)c2OC(F)F)C1` (stereo in doubt) [Compound I-26, (R)-1-(1-((2-(difluoromethoxy)-3,4,5,6-tetrafluorophenyl)sulfonyl)pyrrolidin-3-yl)-3-(4-phenoxyphenyl)-1H-pyrazolo[3,4-d]pyrimidin-4-amine], for which the remaining activity at 1 µM at EGFR [1] is above 90%; on BTK [2], below 50%; at BMX, below 50%; on JAK3 it was 50 to 90%; on FGFR4, below 50%. Also, the remaining activity at 10 µM at EGFR [1] is 50 to 90%; at BTK [2] it was below 50%; on BMX, below 50%; on JAK3, 50 to 90%; on FGFR4 it was below 50%. Besides, at BTK [3], the “pBTK inhibition (RAMOS, 24 h)” value is given as “X”. Besides, the IC50 at BMX (dose response) and against FGFR4 (dose response) was below 1 µM in each case.
